# Laboratory results as given in patent US20250163022A1, “PARP1 INHIBITORS” (Synnovation Therapeutics, Inc., priority 2021, published 2025).
# Target: T1, PARP1 (Homo sapiens, UniProt P09874)
# T1 construct: HeLa cells (wide-type with PARP1 gene) were purchased from ATCC; host or cells: HeLa (wild type)
# Experiment: In-Cell Western measurement of PARylation in PARP1 WT and knockout cells
# Type: cell-based
# Conditions: HeLa cells (wide-type with PARP1 gene); hydrogen peroxide-induced PARylation; compounds 30 min, then 10 mM hydrogen peroxide 15 min; read-out: HeLa_WT_IC50
# Description: The purpose of this cell-based assay is to measure the potency and selectivity of synthesized PARP inhibitors in suppressing hydrogen peroxide-induced PARylation in cells with and without PARP1 expression. Several cell lines were used in this assay. The human PARP1 knockout HEK-293T cell line (#ab266598) was purchased from Abcam, and its corresponding wide-type control is the human wild-type HEK-293T cell line (#ab255449). The HAP1 isogenic cell lines with and without the PARP1 gene (#HZGHC003943c006) were purchased from Horizon Discovery. HeLa cells (wide-type with PARP1 gene) were purchased from ATCC. Cells were cultured using complete medium containing 10% fetal bovine serum. One day before the assay, cells were seeded in 96-well plates at the density of 20,000 cells per well in 100 uL complete medium. Compounds were dissolved using DMSO and diluted to the working concentrations using complete medium. Cells were pre-treated with compounds for 30 min and then stimulated with 10 mM hydrogen peroxide for 15 min. After stimulation, cells were immediately fixed using ice-cold methanol for 20 min. After fixation, cells were washed using 1×PBST buffer for 3 times, 5 min each time, to eliminate residual methanol. Cells were blocked for 2 h at room temperature in blocking buffer (LI-COR Biosciences, #927-70001). Primary antibody was diluted in diluent buffer (LI-COR Biosciences, #927-75001, 1:200) at 50 uL per well. Cells were incubated with the primary antibody at 4° C. for 18 h. The wells were then washed using 1×PBST for 3 times, 5 min each time. IRDye® 680RD Goat anti-Mouse IgG (H+L) secondary antibody was diluted at 1/2000 using the diluent buffer and added at 100 μL per well. Secondary antibody incubation was for 1 h at room temperature. Cells were then washed using 1×PBST for 3 times, 5 min each time. The signal was detected and analyzed using LI-COR Odyssey DLx Imaging system. Data were collected and further processed using GraphPad Prism for IC50 estimation.
# T1 sequence (P09874 whole entry): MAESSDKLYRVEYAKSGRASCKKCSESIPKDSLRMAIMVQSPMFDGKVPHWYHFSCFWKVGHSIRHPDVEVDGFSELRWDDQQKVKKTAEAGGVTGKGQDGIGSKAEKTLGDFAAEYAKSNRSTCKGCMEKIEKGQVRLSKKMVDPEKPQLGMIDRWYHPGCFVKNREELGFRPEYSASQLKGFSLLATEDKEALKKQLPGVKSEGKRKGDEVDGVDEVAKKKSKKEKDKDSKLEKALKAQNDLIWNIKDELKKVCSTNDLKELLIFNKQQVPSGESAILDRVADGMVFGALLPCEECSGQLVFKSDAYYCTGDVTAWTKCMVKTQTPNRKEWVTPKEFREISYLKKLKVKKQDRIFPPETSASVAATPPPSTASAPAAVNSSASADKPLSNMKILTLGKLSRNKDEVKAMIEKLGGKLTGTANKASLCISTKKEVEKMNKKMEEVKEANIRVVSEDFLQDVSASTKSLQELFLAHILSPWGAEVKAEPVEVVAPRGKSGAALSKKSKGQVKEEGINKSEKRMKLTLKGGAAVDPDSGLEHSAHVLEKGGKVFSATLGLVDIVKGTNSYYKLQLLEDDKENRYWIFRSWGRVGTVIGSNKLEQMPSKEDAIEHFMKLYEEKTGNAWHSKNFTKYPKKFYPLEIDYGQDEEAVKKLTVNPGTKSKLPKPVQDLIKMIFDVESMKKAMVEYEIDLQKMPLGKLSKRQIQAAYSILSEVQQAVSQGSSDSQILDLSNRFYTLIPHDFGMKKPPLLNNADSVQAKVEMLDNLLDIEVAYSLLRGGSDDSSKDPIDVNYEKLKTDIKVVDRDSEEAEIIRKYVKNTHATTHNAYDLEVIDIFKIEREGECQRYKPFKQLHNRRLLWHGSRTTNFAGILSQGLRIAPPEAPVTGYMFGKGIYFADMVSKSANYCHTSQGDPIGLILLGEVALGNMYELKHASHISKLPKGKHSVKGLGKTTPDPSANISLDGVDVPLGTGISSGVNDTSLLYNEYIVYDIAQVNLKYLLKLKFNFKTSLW
row,Structure (SMILES),IC50 [nM]
1,"CCn1c(=O)[nH]c2cc(CN3CCN(c4ccc(C(=O)NC)nc4)CC3)ccc2c1=O [Compound I-1, 5-(4-((3-Ethyl-2,4-dioxo-1,2,3,4-tetrahydroquinazolin-7-yl)methyl)piperazin-1-yl)-N-methylpicolinamide]",≤ 10
2,"CCN1Cc2ccc(CN3CCN(c4ccc(C(=O)NC)nc4)CC3)cc2NC1=O [Compound I-2, 5-(4-((3-Ethyl-2-oxo-1,2,3,4-tetrahydroquinazolin-7-yl)methyl)piperazin-1-yl)-N-methylpicolinamide]",10 to 100
3,"CNC(=O)c1ccc(N2CCN(Cc3ccc4c(c3)NC(=O)C3CC43)CC2)cn1 (stereo not shown) [Compound I-3, N-Methyl-5-(4-((2-oxo-1a,2,3,7b-tetrahydro-1H-cyclopropa[c]quinolin-5-yl)methyl)piperazin-1-yl)picolinamide]",100 to 500
4,"CNC(=O)c1ccc(N2CCN(Cc3ccc4c(c3)NC(=O)C3(CC3)C4)CC2)cn1 [Compound I-5, N-methyl-5-(4-((2′-oxo-1′,4′-dihydro-2′H-spiro[cyclopropane-1,3′-quinolin]-7′-yl)methyl)piperazin-1-yl)picolinamide]",10 to 100
5,"CNC(=O)c1ccc(N2CCN(Cc3ccc4c(c3)[nH]c(=O)c3c4ccn3C)CC2)cn1 [Compound I-7, N-methyl-5-(4-((3-methyl-4-oxo-4,5-dihydro-3H-pyrrolo[2,3-c]quinolin-7-yl)methyl)piperazin-1-yl)picolinamide]",≤ 10
6,"CNC(=O)c1ccc(N2CCN(Cc3ccc4c(c3)[nH]c(=O)c3ccn(C)c34)CC2)cn1 [Compound I-8, N-methyl-5-(4-((1-methyl-4-oxo-4,5-dihydro-1H-pyrrolo[3,2-c]quinolin-7-yl)methyl)piperazin-1-yl)picolinamide]",≤ 10
7,"CCN1Cc2ncc(CN3CCN(c4ccc(C(=O)NC)nc4)CC3)cc2NC1=O [Compound I-11, 5-(4-((3-Ethyl-2-oxo-1,2,3,4-tetrahydropyrido[3,2-d]pyrimidin-7-yl)methyl)piperazin-1-yl)-N-methylpicolinamide]",10 to 100
8,"CNC(=O)c1ccc(N2CCN(Cc3ccc4c(=O)n(CC(F)F)c(=O)[nH]c4c3)CC2)cn1 [Compound I-12, 5-(4-((3-(2,2-Difluoroethyl)-2,4-dioxo-1,2,3,4-tetrahydroquinazolin-7-yl)methyl)piperazin-1-yl)-N-methylpicolinamide]",≤ 10
9,"CCc1cc2sc(CN3CCN(c4ccc(C(=O)NC)nc4)CC3)cc2[nH]c1=O [Compound I-13, 5-(4-((6-Ethyl-5-oxo-4,5-dihydrothieno[3,2-b]pyridin-2-yl)methyl)piperazin-1-yl)-N-methylpicolinamide]",≤ 10
10,"CCN1C(=O)Nc2cc(CN3CCN(c4ccc(C(=O)NC)nc4)CC3)cc3ncnc1c23 [Compound I-15, 5-(4-((3-Ethyl-2-oxo-2,3-dihydro-1H-pyrimido[4,5,6-de]quinazolin-8-yl)methyl)piperazin-1-yl)-N-methylpicolinamide]",≤ 10
11,"CCN1C(=O)Nc2cc(CN3CCN(c4ccc(C(=O)NC)nc4C)CC3)cc3ncnc1c23 [Compound I-17, 5-(4-((3-Ethyl-2-oxo-2,3-dihydro-1H-pyrimido[4,5,6-de]quinazolin-8-yl)methyl)piperazin-1-yl)-N,6-dimethylpicolinamide]",≤ 10
12,"CCN1C(=O)Nc2cc(CN3CCN(c4ccc(C(=O)NC)nc4F)CC3)cc3ncnc1c23 [Compound I-19, 5-(4-((3-ethyl-2-oxo-2,3-dihydro-1H-pyrimido[4,5,6-de]quinazolin-8-yl)methyl)piperazin-1-yl)-6-fluoro-N-methylpicolinamide]",≤ 10
13,"CCn1c(=O)[nH]c2c(F)c(CN3CCN(c4ccc(C(=O)NC)nc4C)CC3)ccc2c1=O [Compound I-21, 5-(4-((3-ethyl-8-fluoro-2,4-dioxo-1,2,3,4-tetrahydroquinazolin-7-yl)methyl)piperazin-1-yl)-N,6-dimethylpicolinamide]",≤ 10

# Continued, values first:
row,IC50 [nM],Structure (SMILES)
1,≤ 10,"CNC(=O)c1ccc(N2CCN(Cc3ccc4c5c(c(=O)[nH]c4c3)CCC5)CC2)cn1 [Compound I-4, N-methyl-5-(4-((4-oxo-2,3,4,5-tetrahydro-1H-cyclopenta[c]quinolin-7-yl)methyl)piperazin-1-yl)picolinamide]"
2,≤ 10,"CNC(=O)c1ccc(N2CCN(Cc3cnc4c5c(c(=O)[nH]c4c3)CCC5)CC2)cn1 [Compound I-6, N-methyl-5-(4-((6-oxo-6,7,8,9-tetrahydro-5H-cyclopenta[c][1,5]naphthyridin-3-yl)methyl)piperazin-1-yl)picolinamide]"
3,100 to 500,"CCn1c(=O)[nH]c2cc(CN3CCN(c4ccc(C(=O)NC)nc4)CC3)cnc2c1=O [Compound I-9, 5-(4-((3-Ethyl-2,4-dioxo-1,2,3,4-tetrahydropyrido[3,2-d]pyrimidin-7-yl)methyl)piperazin-1-yl)-N-methylpicolinamide]"
4,10 to 100,"CNC(=O)c1ccc(N2CCN(Cc3ccc4c(c3)[nH]c(=O)c3c4cnn3C)CC2)cn1 [Compound I-10, N-methyl-5-(4-((3-methyl-4-oxo-4,5-dihydro-3H-pyrazolo[3,4-c]quinolin-7-yl)methyl)piperazin-1-yl)picolinamide]"
5,≤ 10,"CCc1c2c3c(cc(CN4CCN(c5ccc(C(=O)NC)nc5)CC4)cc3[nH]c1=O)OCC2 [Compound I-14, 5-(4-((4-Ethyl-5-oxo-2,3,5,6-tetrahydropyrano[4,3,2-de]quinolin-8-yl)methyl)piperazin-1-yl)-N-methylpicolinamide]"
6,≤ 10,"CCn1c(=O)[nH]c2cc(CN3CCN(c4ccc(C(=O)NC)nc4C)CC3)ccc2c1=O [Compound I-16, 5-(4-((3-ethyl-2,4-dioxo-1,2,3,4-tetrahydroquinazolin-7-yl)methyl)piperazin-1-yl)-N,6-dimethylpicolinamide]"
7,≤ 10,"CCN1C(=O)Nc2cc(CN3CCN(c4ccc(C(=O)NC)nc4C(F)(F)F)CC3)cc3ncnc1c23 [Compound I-18, 5-(4-((3-Ethyl-2-oxo-2,3-dihydro-1H-pyrimido[4,5,6-de]quinazolin-8-yl)methyl)piperazin-1-yl)-N-methyl-6-(trifluoromethyl)picolinamide]"
8,≤ 10,"CNC(=O)c1ccc(N2CCN(Cc3cnc4c5c(c(=O)[nH]c4c3)CCC5)CC2)c(C)n1 [Compound I-20, N,6-dimethyl-5-(4-((6-oxo-6,7,8,9-tetrahydro-5H-cyclopenta[c][1,5]naphthyridin-3-yl)methyl)piperazin-1-yl)picolinamide]"
9,≤ 10,"CCn1c(=O)[nH]c2cc(CN3CCN(c4ccc(C(=O)NC)nc4C)CC3)cc(F)c2c1=O [Compound I-22, 5-(4-((3-ethyl-5-fluoro-2,4-dioxo-1,2,3,4-tetrahydroquinazolin-7-yl)methyl)piperazin-1-yl)-N,6-dimethylpicolinamide]"
10,≤ 10,"CNC(=O)c1ccc(N2CCN(Cc3cnc4c5c(c(=O)[nH]c4c3)CCC5)CC2)c(C(F)(F)F)n1 [Compound I-23, N-methyl-5-(4-((6-oxo-6,7,8,9-tetrahydro-5H-cyclopenta[c][1,5]naphthyridin-3-yl)methyl)piperazin-1-yl)-6-(trifluoromethyl)picolinamide]"
11,≤ 10,"CNC(=O)c1ccc(N2CCN(Cc3cnc4c5c(c(=O)[nH]c4c3)CCC5)CC2)c(F)n1 [Compound I-24, 6-Fluoro-N-methyl-5-(4-((6-oxo-6,7,8,9-tetrahydro-5H-cyclopenta[c][1,5]naphthyridin-3-yl)methyl)piperazin-1-yl)picolinamide]"
12,≤ 10,"CNC(=O)c1ccc(N2CCN(Cc3ncc4c5c(c(=O)[nH]c4c3F)CCC5)CC2)c(C)n1 [Compound I-25, 5-(4-((4-Fluoro-6-oxo-6,7,8,9-tetrahydro-5H-cyclopenta[c][1,6]naphthyridin-3-yl)methyl)piperazin-1-yl)-N,6-dimethylpicolinamide]"
13,≤ 10,"CNC(=O)c1ccc(N2CCN(Cc3ncc4c5c(c(=O)[nH]c4c3F)CCC5)CC2)cn1 [Compound I-26, 5-(4-((4-Fluoro-6-oxo-6,7,8,9-tetrahydro-5H-cyclopenta[c][1,6]naphthyridin-3-yl)methyl)piperazin-1-yl)-N-methylpicolinamide]"
14,≤ 10,"CNC(=O)c1ccc(N2CCN(Cc3ncc4c5c(c(=O)[nH]c4c3F)CCC5)CC2)c(F)n1 [Compound I-27, 6-Fluoro-5-(4-((4-fluoro-6-oxo-6,7,8,9-tetrahydro-5H-cyclopenta[c][1,6]naphthyridin-3-yl)methyl)piperazin-1-yl)-N-methylpicolinamide]"
15,≤ 10,"CNC(=O)c1ccc(N2CCN(Cc3ncc4c5c(c(=O)[nH]c4c3F)CCC5)CC2)c(C(F)(F)F)n1 [Compound I-28, 5-(4-((4-Fluoro-6-oxo-6,7,8,9-tetrahydro-5H-cyclopenta[c][1,6]naphthyridin-3-yl)methyl)piperazin-1-yl)-N-methyl-6-(trifluoromethyl)picolinamide]"
